Reference: ChEMBL document CHEMBL1150709, “Irisones A and B: two new isoflavones from Iris missouriensis” (1987)

Test system: P388
Assay: Cytotoxicity against mouse P388 cells
Format: functional
Details: read-out: ED50 (the source's name)

Compound	EC50
O=c1c(-c2ccccc2O)coc2cc3c(c(O)c12)OCO3 [IRISONE B]	> 50 µg/mL
COc1ccccc1-c1coc2cc3c(c(O)c2c1=O)OCO3 [IRISONE A]	> 50 µg/mL
COc1ccccc1-c1coc2cc(O)c(OC)c(O)c2c1=O	> 50 µg/mL
